Structures can show the parent of a compound that is named as a salt. Where two headings read alike, the source gives them in different places.
Assays:
[1] = Solubility (Sol., Table 1); type: physicochemical
pH (Table 1) = type: physicochemical
[2] = system: Escherichia coli (ATCC 25922); experiment: Minimum inhibitory concentration (MIC) assay, Example 33; type: cell-based; details: Escherichia coli
Method in brief: (§1)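 Colonies re-streaked twice on agar (20 to 24 hrs, 35±2° C) supplied inoculum adjusted to 0.5 McFarland, diluted 1:100 into medium, then added 1:2 to CAMHB wells holding 2-fold compound dilutions. After incubation at 35° C, MIC was recorded per CLSI.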

[3] = system: Pseudomonas aeruginosa (ATCC 27853); experiment: as above; type: cell-based; details: Pseudomonas aeruginosa
Method in brief: as §1

[4] = system: Staphulococcus aureus (ATCC 29213); experiment: as above; type: cell-based, Staphylococcus aureus; details: Staphylococcus aureus
Method in brief: as §1

[5] = system: Candida albicans (ATCC 90029); experiment: as above; type: cell-based; details: Candida albicans
Method in brief: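 MIC read per CLSI after incubation at 35° C. Colonies in RPMI 1640 adjusted to OD530 0.08–0.13, diluted 1:50 and 1:20 to twice test density, then added 1:2 to wells holding 2-fold serial drug dilutions in RPMI 1640 (CLSI microdilution).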

[6] = system: Aspergillus niger (CMCC 98003); experiment: as above; type: cell-based; details: for MIC: Aspergillus niger; for MIC Aspergillus niger: n = 2
Method in brief: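 Conidia gently probed from sporulating colonies into RPMI 1640, set to 0.09-0.13 at 530 nm, then diluted 1:50 and mixed 1:2 with 2-fold serially diluted compounds. Following CLSI guidelines, incubation was at 35 °C before the MIC was recorded.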

[7] = system: Candida albicans (ATCC 90029); experiment: Time kill study, Example 33 (0 to 5 min); type: cell-based; details: 1×MIC
Method in brief: (§2)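 Viable counts (Log10 CFU/mL) came from colonies counted after 24–48 hrs on agar plates. Samples were drawn at 0 min, 30 sec, 1 min and 5 min from equal-volume mixtures of compound solution and strain suspension, then diluted in test medium; CLSI procedures followed.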

[8] = system: Escherichia coli (ATCC 25922); experiment: Time kill study, Example 33 (0 to 5 min); type: cell-based; details: 1×MIC
Method in brief: as §2

[9] = system: Pseudomonas aeruginosa (ATCC 27853); experiment: Time kill study, Example 33 (0 to 5 min); type: cell-based; details: 1×MIC
Method in brief: as §2

[10] = system: Staphylococcus aureus (ATCC 29213); experiment: Time kill study, Example 33 (0 to 5 min); type: cell-based; details: 1×MIC
Method in brief: as §2

[11] = ATCC25922, Table 19 summary of Example 33 and Example 35
[12] = ATCC25922, read-out: MIC E. coli, n = 1
[13] = ATCC25922, read-out: MIC E. coli, n = 2
[14] = ATCC27853, read-out: MIC P. aeruginosa, n = 1
[15] = ATCC27853, read-out: MIC P. aeruginosa, n = 2
[16] = ATCC29213, read-out: MIC S. aureus, n = 1
[17] = ATCC29213, read-out: MIC S. aureus, n = 2
[18] = ATCC90029, read-out: MIC Candida albicans, n = 1
[19] = ATCC90029, read-out: MIC Candida albicans, n = 2
[20] = CMCC98003, read-out: MIC Aspergillus niger

| SMILES | Sol. [1] [%] | pH (pH (Table 1)) | MIC [2, 11] [µg/mL] | MIC [2, 12] [µg/mL] | MIC [2, 13] [µg/mL] | MIC ([3]; ATCC27853, Table 19 summary) [µg/mL] | MIC [3, 14] [µg/mL] | MIC [3, 15] [µg/mL] | MIC [4, 16] [µg/mL] | MIC [4, 17] [µg/mL] | MIC ([5]; ATCC90029, Table 19 summary) [µg/mL] | MIC [5, 18] [µg/mL] | MIC [5, 19] [µg/mL] | MIC ([6]; CMCC98003) [µg/mL] | MIC [6, 20] [µg/mL] | MIC Aspergillus niger [6] [µg/mL] | Viable counts, Escherichia coli time kill study ([8]; 0.5 min) [Log10 CFU/mL] | Viable counts, Escherichia coli time kill study ([8]; 1 min) [Log10 CFU/mL] | Viable counts, Escherichia coli time kill study ([8]; 5 min) [Log10 CFU/mL] | Viable counts, Escherichia coli time kill study ([8]; time 0) [Log10 CFU/mL] | further results |
| --- | --- | --- | --- | --- | --- | --- | --- | --- | --- | --- | --- | --- | --- | --- | --- | --- | --- | --- | --- | --- | --- |
| CCCCCCCCCCCCOC(=O)C(Cc1ccccc1)N(C)C (stereo not drawn) [Nex-54, Dodecyl 2-(dimethylamino)-3-phenylpropanoate hydrochloride] | 58 | 2.16 | ≥ 12500 | > 12500 | 12500 | ≥ 12500 | > 12500 | 12500 | > 12500 | 12500 | 6250 | 6250 | 6250 | 12500 | 12500 | 12500 | – | – | – | – | MIC ([4]; ATCC29213, Table 19 summary): ≥ 12500 µg/mL; Viable counts, Candida albicans time kill study ([7]; 0.5 min): 5.56 Log10 CFU/mL; Viable counts, Candida albicans time kill study ([7]; 1 min): 5.52 Log10 CFU/mL; Viable counts, Candida albicans time kill study ([7]; 5 min): 5.48 Log10 CFU/mL; Viable counts, Candida albicans time kill study ([7]; time 0): 5.56 Log10 CFU/mL |
| CCCCCCCCCCCCOC(=O)C(C)(C)N(C)C [Nex-58, Dodecyl 2-(dimethylamino)-2-methylpropanoate hydrochloride] | 51 | 2.27 | 3130 | 3130 | 3130 | 6250 | 6250 | 6250 | 3130 | 1560 | > 12500 | > 12500 | > 12500 | > 12500 | > 12500 | >12500 | <4.0 | <3.70 | <3.52 | 5.91 | Viable counts, Pseudomonas aeruginosa time kill study ([9]; 0.5 min): <4.0 Log10 CFU/mL; Viable counts, Pseudomonas aeruginosa time kill study ([9]; 1 min): <3.70 Log10 CFU/mL; Viable counts, Pseudomonas aeruginosa time kill study ([9]; 5 min): <3.52 Log10 CFU/mL; Viable counts, Pseudomonas aeruginosa time kill study ([9]; time 0): 5.54 Log10 CFU/mL; Viable counts, Staphylococcus aureus time kill study ([10]; 0.5 min): 6.15 Log10 CFU/mL; Viable counts, Staphylococcus aureus time kill study ([10]; 1 min): 6.11 Log10 CFU/mL; Viable counts, Staphylococcus aureus time kill study ([10]; 5 min): 5.81 Log10 CFU/mL; Viable counts, Staphylococcus aureus time kill study ([10]; time 0): 6.26 Log10 CFU/mL |
| CCCCCCCCCCCC(C)OC(=O)C(C)N(C)C (stereo not drawn) [Nex-64, Tridecan-2-yl 2-(dimethylamino)propanoate hydrochloride] | 44 | 1.95 | 3130 | 3130 | 3130 | 6250 | 6250 | 6250 | 3130 | 3130 | > 12500 | > 12500 | > 12500 | > 12500 | > 12500 | >12500 | 5.73 | 5.7 | <3.52 | 5.71 | MIC ([4]; ATCC29213, Table 19 summary): 3130 µg/mL; Viable counts, Pseudomonas aeruginosa time kill study ([9]; 0.5 min): 4 Log10 CFU/mL; Viable counts, Pseudomonas aeruginosa time kill study ([9]; 1 min): <3.70 Log10 CFU/mL; Viable counts, Pseudomonas aeruginosa time kill study ([9]; 5 min): <3.52 Log10 CFU/mL; Viable counts, Pseudomonas aeruginosa time kill study ([9]; time 0): 5.45 Log10 CFU/mL; Viable counts, Staphylococcus aureus time kill study ([10]; 0.5 min): 6.41 Log10 CFU/mL; Viable counts, Staphylococcus aureus time kill study ([10]; 1 min): 6.38 Log10 CFU/mL; Viable counts, Staphylococcus aureus time kill study ([10]; 5 min): 6.36 Log10 CFU/mL; Viable counts, Staphylococcus aureus time kill study ([10]; time 0): 6.34 Log10 CFU/mL |
| CCCCCCCCCCCCCCOC(=O)C(C)N(C)C (stereo not drawn) [Nex-66, Tetradecyl 2-(dimethylamino)propanoate hydrochloride] | 48 | 2.35 | 3130 | 3130 | 3130 | 6250 | 6250 | 6250 | 3130 | 3130 | > 12500 | > 12500 | > 12500 | > 12500 | > 12500 | >12500 | 5.91 | 6.03 | 5.81 | 5.7 | MIC ([4]; ATCC29213, Table 19 summary): 3130 µg/mL; Viable counts, Pseudomonas aeruginosa time kill study ([9]; 0.5 min): 5.91 Log10 CFU/mL; Viable counts, Pseudomonas aeruginosa time kill study ([9]; 1 min): 5.68 Log10 CFU/mL; Viable counts, Pseudomonas aeruginosa time kill study ([9]; 5 min): 5.56 Log10 CFU/mL; Viable counts, Pseudomonas aeruginosa time kill study ([9]; time 0): 5.64 Log10 CFU/mL; Viable counts, Staphylococcus aureus time kill study ([10]; 0.5 min): 6.5 Log10 CFU/mL; Viable counts, Staphylococcus aureus time kill study ([10]; 1 min): 6.41 Log10 CFU/mL; Viable counts, Staphylococcus aureus time kill study ([10]; 5 min): 6.39 Log10 CFU/mL; Viable counts, Staphylococcus aureus time kill study ([10]; time 0): 6.27 Log10 CFU/mL |
| CCCCCCCCCCCOC(=O)C(C)N(C)C (stereo not drawn) [Nex-67, Undecyl 2-(dimethylamino)propanoate hydrochloride] | 81 | 3.77 | 1560 | 1560 | 1560 | 6250 | 6250 | 6250 | 3130 | 1560 | 6250 | 6250 | 6250 | 12500 | 12500 | 12500 | 5.81 | 5.28 | 3.82 | 5.64 | Viable counts, Candida albicans time kill study ([7]; 0.5 min): 5.53 Log10 CFU/mL; Viable counts, Candida albicans time kill study ([7]; 1 min): 5.49 Log10 CFU/mL; Viable counts, Candida albicans time kill study ([7]; 5 min): 5.41 Log10 CFU/mL; Viable counts, Candida albicans time kill study ([7]; time 0): 5.58 Log10 CFU/mL; Viable counts, Pseudomonas aeruginosa time kill study ([9]; 0.5 min): <4.0 Log10 CFU/mL; Viable counts, Pseudomonas aeruginosa time kill study ([9]; 1 min): <3.70 Log10 CFU/mL; Viable counts, Pseudomonas aeruginosa time kill study ([9]; 5 min): <3.52 Log10 CFU/mL; Viable counts, Pseudomonas aeruginosa time kill study ([9]; time 0): 5.71 Log10 CFU/mL; Viable counts, Staphylococcus aureus time kill study ([10]; 0.5 min): 6.1 Log10 CFU/mL; Viable counts, Staphylococcus aureus time kill study ([10]; 1 min): 6.13 Log10 CFU/mL; Viable counts, Staphylococcus aureus time kill study ([10]; 5 min): 5.88 Log10 CFU/mL; Viable counts, Staphylococcus aureus time kill study ([10]; time 0): 6.27 Log10 CFU/mL |
| CCCCCCCCCCCCCOC(=O)C(C)N(C)C (stereo not drawn) [Nex-69, Tridecyl 2-(dimethylamino)propanoate hydrochloride] | 51 | 1.64 | 3130 | 3130 | 3130 | 6250 | 6250 | 6250 | 3130 | 3130 | 12500 | 12500 | 12500 | > 12500 | > 12500 | >12500 | 5.72 | 5.54 | <3.52 | 6.25 | MIC ([4]; ATCC29213, Table 19 summary): 3130 µg/mL; Viable counts, Pseudomonas aeruginosa time kill study ([9]; 0.5 min): 5.75 Log10 CFU/mL; Viable counts, Pseudomonas aeruginosa time kill study ([9]; 1 min): 5.74 Log10 CFU/mL; Viable counts, Pseudomonas aeruginosa time kill study ([9]; 5 min): 5.21 Log10 CFU/mL; Viable counts, Pseudomonas aeruginosa time kill study ([9]; time 0): 5.65 Log10 CFU/mL; Viable counts, Staphylococcus aureus time kill study ([10]; 0.5 min): 6.39 Log10 CFU/mL; Viable counts, Staphylococcus aureus time kill study ([10]; 1 min): 6.31 Log10 CFU/mL; Viable counts, Staphylococcus aureus time kill study ([10]; 5 min): 6.38 Log10 CFU/mL; Viable counts, Staphylococcus aureus time kill study ([10]; time 0): 6.41 Log10 CFU/mL |
